According to patent US11603391B2, “CATH2 derivatives” (Universiteit Utrecht Holding B.V., priority 2014, dated 2023):
No end group written: not given here.

What was measured:
HD11 cells = assay: Neutralization of LPS-induced interleukin-1β transcription in HD11 cells (real time PCR); assay type: cell-based, chicken; conditions: 20 μM peptide pre-incubated with 50 ng/ml LPS; 4 h
Description: (§1) FIG. 11A-11B—Neutralization of lipopolysaccharide-induced interleukin-1β induction and nitric oxide production in HD11 cells by CMAP27 derived peptides. HD11 cells were seeded in 96 wells tissue culture treated plates (2×10^5 cell/mL) in RPMI-1640/10% FCS. Final concentrations of 50 ng/ml LPS were pre-incubated with or without 20 μM peptide for 30 min at 37° C. (5% CO2), applied to the cells and incubated for 4 h and 24 h. A) Transcription levels of interleukin-1 were determined by real time PCR (4 h only). B) Supernatants were collected for the determination of nitric oxide production (24 h incubations only) using the Griess assay. Significance levels: *P<0.05, **P<0.01, ***P<0.001. Data represents means±SEM from 3-4 independent experiments.
as §1, with “FIG. 12A-12B—Substitution” for “FIG. 11A-11B—Neutralization”, “of phenylalanine residues by tryptophan enhances the” for “of lipopolysaccharide-induced interleukin-1β induction and nitric oxide production”, “in vitro LPS neutralization capacity of” for “in HD11 cells by”, “h or” for “h and”
HD11 cells were seeded in 96 wells tissue culture treated plates (2×10^5 cell/mL) in RPMI-1640/10% FCS. Final concentrations of 50 ng/ml Salmonella minnesota LPS were pre-incubated with or without 20 μM peptide for 30 min at 37° C. (5% CO2), applied to the cells and incubated for 4 h and 24 h. A) Transcription levels of interleukin-1 were determined by real time PCR (4 h only). B) Supernatants were collected for the determination of nitric oxide production (24 h incubations only) using the Griess assay.

[1] = assay type: in vivo, chicken (Ross308 broilers); conditions: for bodyweight at 7 days post hatch (D7): 1 mg/kg in ovo at embryonic day 18, compared to vehicle treated birds; for HATCHABILITY: in vivo, 1 mg/kg
Description: FIG. 8A-8B—Bodyweights of Ross308 broilers assessed at hatch (D0) (FIG. 8A) and at 7 days after hatch (D7) (FIG. 8B). Birds were injected at embryonic day 18 with 1 mg/kg peptide or vehicle.
DCATH2 peptide and truncated analogs D-CMAP(1-21) and D-CMAP(4-21) were suspended in a Cholesterol/PBS formulation. Ross308 eggs were injected in the amnion fluid at 18 days of embryonic age with 100 μl of peptide containing suspension and returned to an egg incubator to hatch (˜ at 21 days embryonic age). Both control groups were injected in the amnion fluid with cholesterol/PBS formulation. The 1 mg/kg bodyweight dose of peptide was calculated based on an embryo body weight of 22 g. After hatch, all birds were weighed individually (D0) and transferred into isolator units per treatment (n=120/group). Birds were fed ad libitum and at 7 days after hatch (D7) bodyweights of individual birds were assessed.

[2] = tested on: avian pathogenic Escherichia coli 506; assay: In ovo peptide treatment, intratracheal E. coli challenge of broiler chicks; assay type: in vivo, chicken (Ross308 broilers)
Text: FIG. 4A-4B—Differential and total counts of chicken peripheral blood leukocytes at 2 days p.i. after intra-tracheal injection with 10^6 CFU of avian pathogenic E. coli 506. A) total counts. B) differential counts.
FIG. 5A-5B—Mortality after intra-tracheal injection with 10^6 CFU of avian pathogenic E. coli 506. A) Survival curves of peptide treated and nontreated birds during 7 days post infection. B) Reduction of mortality (%) relative to untreated infected birds.
(§2) FIG. 6A-6B—Lesion scores determined at 7 days p.i. after intratracheal injection with 10^6 CFU of avian pathogenic E. coli 506. Left and right thoracic air sacs (respiratory tract), liver and heart (systemic infection) were separately evaluated using a scoring system: 0=no lesions, 1=mild lesions, 2=moderate lesions and 3=severe lesions. The mean lesion scores (MLS) were calculated as the sum of lesion scores per bird. A) The percentage of colibacillosis positive birds (MLS>1) and the reduction of colibacillosis positive birds relative to untreated infected birds. B) The average lesion scores relative to untreated infected birds.
FIG. 7—Thoracic air sac counts 7 days after intratracheal injection with 10^6 CFU of avian pathogenic E. coli 506.
DCATH2 peptide was suspended in a Cholesterol/PBS formulation. Ross308 eggs were injected in the amnion fluid at 18 days of embryonic age with 100 μl of DCATH2 containing suspension and returned to an egg incubator to hatch (˜ at 21 days embryonic age). Both control groups were injected in the amnion fluid with cholesterol/PBS formulation. The 1 mg/kg bodyweight dose of DCATH2 peptide was calculated based on an embryo body weight of 22 g. After hatch, birds were transferred into isolator units per treatment (n=54/group). Three days after hatch, all birds except the negative control were intratracheally inoculated with an avian pathogenic Escherichia coli 506 strain (UU strain) at a dose of 1×10^6 CFU per bird. Two day after challenge, 13 birds per group were sacrificed and used to take samples for blood and organ analysis. Blood samples were taken to determine total leukocyte counts and leukocyte differentiation. During the 7 day challenge period mortality was registered per day. At the end of the challenge period at 7 days post infection, all remaining birds were sacrificed and in the left and right side thoracic air sacs, liver and heart were examined for lesion scores.

[3] = tested on: avian pathogenic Salmonella enteritidis pt13a; assay: In ovo peptide treatment, subcutaneous Salmonella enteritidis challenge of broiler chicks; assay type: in vivo, chicken (Ross308 broilers)
Text: FIG. 1A-1B—Differential and total counts of chicken peripheral blood leukocytes at 2 days p.i. after subcutaneous injection with 10^6 CFU of avian pathogenic Salmonella enteritis pt13a. A) total counts. B) differential counts.
FIG. 2A-2B—Mortality after subcutaneous injection with 10^6 CFU of avian pathogenic Salmonella enteritis pt13a. A) Survival curves of peptide treated and nontreated birds during 7 days post infection. B) Reduction of mortality (%) relative to untreated infected birds (+ control).
as §2, with “3A-3B—Lesion” for “6A-6B—Lesion”, “subcutaneous” for “intratracheal”, “Salmonella enteritis pt13a.” for “E. coli 506.”, “salmonellosis” for “colibacillosis”
DCATH2 peptide (the full D-amino acid analog of CMAP1-26) was suspended in a cholesterol/PBS formulation. Ross308 eggs were injected in the amnion fluid at 18 days of embryonic age with 100 μl of DCATH2 containing suspension and returned to an egg incubator to hatch (˜ at 21 days embryonic age). Both control groups were injected in the amnion fluid with cholesterol/PBS formulation. The 1 mg/kg bodyweight dose of peptide was calculated based on an embryo body weight of 22 g. After hatch, birds were transferred into 4 pens per treatment (n=40/group). Three days after hatch, all birds except the negative control were subcutaneously inoculated with an avian pathogenic Salmonella enteritidis pt13a strain at a dose of 5×10^6 CFU per bird. Two day after challenge, 12 birds per group were sacrificed and used to take samples for blood and organ analysis. Blood samples were taken to determine total leukocyte counts and leukocyte differentiation. During the 7 day challenge period mortality was registered per day. At the end of the challenge period at 7 days post infection, all remaining birds were sacrificed and in the left and right side thoracic air sacs, liver and heart were examined for lesion scores.

[4] = 2 days p.i., 1 mg/kg in ovo, compared to untreated non-infected birds
[5] = 2 days p.i., compared to non-treated, non-infected animals
[6] = 7 days p.i., 1 mg/kg in ovo, surviving birds

## CMAP10-21-NH2: N-terminally truncated variant of CMAP1-21 (RRFRPKVTITIQ-NH2)
HD11 cells
  LPS-neutralizing activity (block of LPS-induced IL-1β expression, in words): lack LPS-neutralizing activity

## Phe/Trp substituted analog of CMAP7-21-NH2: CMAP7-21-NH2 with phenylalanine substituted by tryptophan (RKIRRWRPKVTITIQ-NH2)
HD11 cells
  LPS-induced IL-1β expression blocked: 86.3%

## Phe/Trp substituted analog of CMAP10-21-NH2: CMAP10-21-NH2 with phenylalanine substituted by tryptophan (RRWRPKVTITIQ-NH2)
HD11 cells
  LPS-induced IL-1β expression blocked: 71.9%

## RFGRFLREIRRFRPKVTITIQ-NH2 [D-C(1-21)]
[1]
  bodyweight at 7 days post hatch (D7): significant higher
  HATCHABILITY: 95%

## RFGRFLREIRRFRPKVTITIQGSARF-NH2 [DCATH2]
[2]; [4]
  absolute number of peripheral blood heterophils: significantly higher
  absolute number of peripheral blood leukocytes: significantly higher
[2]; [5]
  absolute number of lymphocytes: No differences
  absolute number of monocytes: No differences
[2]; 7 days p.i., 1 mg/kg in ovo
  reduction of mortality relative to untreated infected birds: 30%
  reduction of severity of colibacillosis-related lesions: 64%
[2]; [6]
  reduction of colibacillosis positive birds (MLS>1) relative to untreated infected birds: 52%
[2]; 7 days p.i., 1 mg/kg in ovo, thoracic air sac counts
  reduction of air sac colonization by E. coli: 93%
[3]; 1 mg/kg in ovo at embryonic day 18, Salmonella challenge 3 days after hatch
  delay of mortality: up to 3 days p.i.
[3]; 2 days p.i., 1 mg/kg in ovo, compared to non-infected birds
  absolute number of peripheral blood heterophils: significantly higher
[3]; 7 days p.i., 1 mg/kg in ovo
  decrease of severity of lesions in salmonellosis positive birds: 69%
  reduction of mortality relative to untreated infected birds: 50%
[3]; [6]
  reduction of salmonellosis positive birds (mean lesion score>1) relative to untreated infected birds: 53%
[1]
  bodyweight at 7 days post hatch (D7): significant higher
  HATCHABILITY: 97%

## RFGRFLRKIRRFRPKVTITIQGSARFG (CMAP27) [CATH2, in b91 probably DCATH2 is meant]
[2]; 7 days p.i., 1 mg/kg in ovo
  reduction of severity of colibacillosis-related lesions: 64%

## RFLREIRRFRPKVTITIQ-NH2 [D-C(4-21)]
[1]
  bodyweight at 7 days post hatch (D7): significant higher
  HATCHABILITY: 94%
